The values that follow come from patent US7067694B2, “Halogen-substituted amino dicarboxylic acid derivatives as medicaments for treating cardiovascular diseases” (Bayer Aktiengesellschaft, priority 2001, dated 2006).

One data set concerns arteria saphena rings. The data set is described as follows: Vasorelaxant effect in vitro (phenylephrine-contracted rabbit arteria saphena rings). The conditions noted are these: Oryctolagus cuniculus, contraction by phenylephrine, 37° C., 0.1% DMSO, read-out: IC50, concentration necessary to reduce the height of the contraction control value by 50%. Format: cell-based, Rabbits. As to the method:
Vasorelaxant Effect in vitro
Rabbits are anesthetized or killed by intravenous injection of thiopental sodium (about 50 mg/kg) and exsanguinated. The arteria saphena is removed and divided into rings 3 mm wide. The individual rings are in each case mounted on a pair of hooks of triangular shape, open at the ends and made of special wire (Remanium®) having a diameter of 0.3 mm. Under pretension, each ring is introduced into a 5 ml organ bath containing carbogen-gassed Krebs-Henseleit solution at 37° C. with the following composition (mM): NaCl: […]; KCl: 4.8; CaCl2×2H2O: 1; MgSO4×7H2O: 1.4; KH2PO4: 1.2; NaHCO3: 25; glucose: 10; bovine serum albumin: 0.001%. The force of contraction is detected with Statham UC2 cells, amplified and digitized via A/D converters (DAS-1802 HC, Keithley Instruments, Munich) and recorded in parallel on chart recorders. Contractions are generated by adding phenylephrine.
After several (generally 4) control cycles, the substance to be investigated is added in each further run in increasing dosage, and the height of the contraction reached under the influence of the test substance is compared with the height of the contraction reached in the last preceding run. The concentration necessary to reduce the height of the control value by 50% (IC50) is calculated from this. The standard application volume is 5 μl. The DMSO content in the bath solution corresponds to 0.1%.

A word on the melting point: it is the temperature of the solid-liquid transition.

Where only a bound is given, the exact number is not on record here.

Take `O=C(O)CCCCN(CCc1ccc(F)cc1OCc1ccc(C2CCCCC2)cc1)Cc1ccc(C(=O)O)cc1` [Example 1, 4-{[(4-carboxybutyl)(2-{2-[(4-cyclohexylbenzyl)oxy]-4-fluorophenyl}ethyl)amino]methyl}benzoic acid]: the melting point is > 250 °C. In addition, the IC50 in the data set on arteria saphena rings came out at 1.1 nM. Regarding `O=C(O)CCCCN(CCc1cc(F)ccc1OCc1ccc(C2CCCCC2)cc1)Cc1ccc(C(=O)O)cc1` [Example 2], the IC50 in the data set on arteria saphena rings was determined as 1.5 nM.

Take `O=C(O)CCCCN(CCc1cc(Cl)ccc1OCc1ccc(-c2ccc(C(F)(F)F)cc2)cc1)Cc1ccc(C(=O)O)cc1` [Example 3]: the IC50 with arteria saphena rings amounted to 1 nM. Still for that read-out and setting: to `O=C(O)CCCCN(CCc1cc(Cl)ccc1OCc1ccc(-c2ccc(Cl)cc2)cc1)Cc1ccc(C(=O)O)cc1` [Example 6] belongs 8.1 nM; to `COc1ccc(-c2ccc(COc3ccc(Cl)cc3CCN(CCCCC(=O)O)Cc3ccc(C(=O)O)cc3)c(Cl)c2)cc1` [Example 9], 8.3 nM.
